In patent publication US9439984B2, “Macrocycles” (priority 2012, dated 2016):

What was measured:
[1] = cited from earlier work; for Log K1 with thorium(IV): ligands of increasing denticity; for log β110 with Th: literature constant used for comparison and in the refinement; for log β111 with Th: protonated 1:1 Th complex, constant included in the refinement
[2] = cited from earlier work; for log β011: m=0, l=1, h=1 (ligand protonation), printed among stability constants for Th; for log β012: m=0, l=1, h=2 (ligand protonation); for log β013: m=0, l=1, h=3 (ligand protonation); for log β014: m=0, l=1, h=4 (ligand protonation); for log β015: m=0, l=1, h=5 (ligand protonation)
[3] = Stopped-flow UV-Vis kinetics of direct association with Th(IV); format: binding; details: 5 μM Th, 10-25 equivalents of ligand, 100 mM HEPES (pH 7.4), 5% DMSO; average of four experiments
Protocol: The stopped-flow kinetic experiments were performed using a stopped-flow apparatus equipped with an OLis rapid-scanning monochromator 1000 and a 75 W Xe lamp. Upon electronic activation, the apparatus (powered with a gas source, in this case, Ar) mixes 100 μL of each solution in the two syringes into a mixing chamber. This mixture is flowed into a separate chamber, where the flow is stopped and UV spectra are taken. One syringe contained 10 μM Th(IV) in 77.9 mM HNO3 (pH 1.4), while the other held a solution of 50-300 μM ligand, in 200 mM HEPES (pH 8.3) and 10% DMSO. The 1:1 mixture of these solutions was 5 μM Th, 25-150 μM ligand, 100 mM HEPES (pH 7.4). […] The data were analyzed using the program SpecFit to simultaneously use the absorbance at all of the wavelengths to obtain a second-order rate constant.
The kinetics of the direct association of L with Th(IV) have been elusive thus far due to the presence of various species in solution (as the metal ion can hydrolyze to form various species such as Th(OH)^3+, Th(OH)2^2+, Th4(OH)12^4+, and Th(OH)4, and L has many protonation states) and the small spectral change upon complexation. […] However, UV-Vis kinetics experiments using a stopped-flow apparatus and more intense light source enabled a direct and quantitative assessment of the complexation. […]

[4] = Th(IV) spectrophotometric EDTA competition titration (solution thermodynamics); details: for pM value (negative logarithm of the free metal concentration): Th(IV); for log β110 (cumulative stability constant) with Th(IV): 25° C., 0.1 M KCl, 5% DMSO, βmlh for mM+lL+hH ⇄ MmLlHh
Protocol: All spectrophotometric titrations were carried out with constant stirring and a blanket of argon flow in a jacketed cell connected to a recirculating water bath to maintain the temperature at 25° C. All solutions contained 0.1 M KCl with 5% DMSO (v/v), for consistency with titrations where DMSO was used to ensure solubility. The ligand was added as a 50 mM DMSO stock solution, and Th(IV) as a standardized 10 mM stock solution in nitric acid (79 mM). The HCl and KOH solutions were prepared by dilution of Dilut-It (J. T. Baker) concentrated solutions with degassed Millipore water containing 5% DMSO, to maintain the DMSO concentration constant throughout the titration. The 0.1 M HCl solution was standardized by titration of Tris using bromocresol green as an indicator, and the 0.1 M KOH solution was standardized by titration of KHP using phenolphthalein as an indicator. The glass electrode (Nova Analytics Pinnacle) used for the pH measurements was calibrated by adding 2.000 mL 0.1 M HCl (5% DMSO) to 50.0 mL 0.1 M KCl (5% DMSO), and titrating the solution to pH 11.6 with 0.1 M KOH (5% DMSO). The titration was analyzed using the program GLEE to refine for 8 and the slope. For low pH titrations, a strong acid calibration was performed by titrating 50.0 mL 0.1 M KCl with 5% (v/v) DMSO with 0.1 M HCl to pH 1.8. The data were analyzed in an Excel spreadsheet using the SOLVER function to refine for Σ° and the slope. Metrohm Brinkmann 665 Dosimat instruments were the automated burettes used to dispense the titrant, the pH meter was a Fisher Accumet AR 15, and the UV-Vis spectrometer a Hewlett-Packard 8452A. The computer program Labview was the interface from which all these components were orchestrated to run the titrations. A value of −14.20 was used as the pKw to account for the DMSO content.
50 mL solutions (5% DMSO) of 50 μM ligand and 20 equivalents (1 mM) each of MES, HEPES, and CHES, were titrated forward and backward between pH 1.9 and 12.7 with standardized 0.1 M KOH and 0.1 M HCl. The data points were collected at constant increments of 0.05 pH units at pH 1.9-11.5, with an equilibration time of 90-500 sec following titrant additions and a 10 min. delay between successive pH readings. Titration data above pH 11.5 was collected at constant increments of 0.10 pH units, to minimize the time at which the electrode is exposed to strongly basic conditions. All absorbance measurements used in the refinement were no more than 1.0 absorbance units. Spectra from 300-450 nm were analyzed (simultaneously) in the program pHAb. Titrations for constants reported with a standard deviation were performed in triplicate (the standard deviation is between individually refined values for each titration).
50 mL solutions of 50 μM ligand, 50 μM Th(IV), and 500 μM EDTA (Sigma Aldrich) or DTPA (Pharm-Eco) were titrated forward and backward with standardized 0.1 M KOH and 0.1 M HCl. The data points were collected at constant increments of 0.05 pH units, with an equilibration time of 90-500 sec following titrant additions and a 20-30 min delay between successive pH readings. All absorbance measurements used in the refinement were no more than 1.1 absorbance units. Spectra from 300-450 nm were analyzed (simultaneously) in the program pHAb. The following values for the log β for the formation of Th hydroxides were included in the refinement: [ThOH]^3+, −2.5; [Th(OH)2]^2+, −6.2; Th(OH)4, −17.4; [Th2(OH)2]^6+, −5.9; [Th2(OH)3]^5+, −6.8; [Th4(OH)8]^8+, −20.4; [Th4(OH)12]^4+, −26.6; [Th4(OH)14]^2+, −36.8; [Th4(OH)15]^+, −36.8. The following stability constants for Th with EDTA (DTPA) were also included: log β011, 10.17 (10.45); log β012, 16.28 (18.98); log β013, 18.96 (23.26); log β014, 22.46 (25.91); log β015, 22.46 (27.73); log β110, 23.2 (28.78); log β111, 25.18 (30.94). Spectra of the free ligand, refined from the ligand titrations, were set constant in the refinement as well.

[5] = UV-Vis dye (arsenazo III) displacement kinetic experiments; format: binding; details: 100 mM HEPES pH 7.4, 100 mM KCl, 25° C., qualitative
Protocol: Spectra were acquired on an Hewlett-Packard 8453 spectrometer at 25° C. The temperature was controlled by a recirculating water bath connected to a jacketed cell holder. Samples were measured in small volume (50 μL) quartz cuvettes with 1 cm path lengths. Solutions were buffered with 100 mM HEPES at pH 7.4 (at 25° C.) and 100 mM KCl. Complexation of the thorium and dye was performed by combining aqueous stock solutions of standardized Th^4+ in nitric acid (77.9 mM HNO3, pH 1.4, 1 mM) and purified dye (1 mM). The solution was let sit on the bench at room temperature for 30 min, diluted in buffer, and let sit at room temperature for an hour. The absorbance was monitored starting from the addition of ligand, as a solution of DMSO ligand stock solution (5 mM) and buffer (equilibrated for 15 min. beforehand). The A vs. t plots were fit with a first-order decay equation in Origin at wavelengths corresponding to the appearance of free dye (550, 560 nm) and the disappearance of thorium-dye complex (614, 669, 700 nm). The reaction with DOTA was refluxed (and stirred with a magnetic stir bar) and performed on a 3 mL scale (instead of 100 μL) in a 10 mL round-bottom flask, placed in an oil bath, and fitted with a reflux condenser. Aliquots were taken periodically and transferred to a cuvette for UV-Vis spectra acquisition. […]

[6] = 1 μM metal, 10 μM ligand, pH 7.4

SMILES: O=C(O)CN(CCN(CC(=O)O)CC(=O)O)CC(=O)O [EDTA]
- Log K1 with thorium(IV) [1]: 25.3
- log β110 with Th [1]: 23.2
- log β111 with Th [1]: 25.18
- log β011 [2]: 10.17
- log β012 [2]: 16.28
- log β013 [2]: 18.96
- log β014 [2]: 22.46
- log β015 [2]: 22.46

SMILES: O=C(O)CN(CC(=O)O)CC(=O)O [NTA]
- Log K1 with thorium(IV) [1]: 16.9

SMILES: O=C(O)CN(CCN(CC(=O)O)CC(=O)O)CCN(CC(=O)O)CC(=O)O [DTPA]
- Log K1 with thorium(IV) [1]: 30.34
- log β110 with Th [1]: 28.78
- log β111 with Th [1]: 30.94
- log β011 [2]: 10.45
- log β012 [2]: 18.98
- log β013 [2]: 23.26
- log β014 [2]: 25.91
- log β015 [2]: 27.73

SMILES: CC(=O)CC(C)=O [Acac]
- Log K1 with thorium(IV) [1]: 7.85

SMILES: COCCNC(=O)c1ccc(C(=O)NCCN2CCNC(=O)c3ccc(c(O)c3O)C(=O)NCCN(CCNC(=O)c3ccc(C(=O)NCCOC)c(O)c3O)CCNC(=O)c3ccc(c(O)c3O)C(=O)NCC2)c(O)c1O [phi(2,2)moeTAM, Tren2TAM2[TAM(OMeEtN)]2]
- second-order rate constant of complexation of Th(IV) [3]: 1.6(3)×10^4 M^−1 s^−1
- pM value (negative logarithm of the free metal concentration) [4, 6]: 40.2
- pM greater than the pM value for DTPA ([4]; 1 μM metal, 10 μM ligand, pH 7.4, relative to DTPA): 14 orders of magnitude
- pM greater than the pM value for ethyl-TAM ([4]; 1 μM metal, 10 μM ligand, pH 7.4, relative to ethyl-TAM): 21 orders of magnitude
- log β110 (cumulative stability constant) with Th(IV) [4]: 53.7(5)
- log β110 greater than that of DTPA ([4]; relative to DTPA (28.78)): over 24 orders of magnitude
- rate of Th(IV) complexation greater than those of DOTA and DTPA [5]: 1-2 orders of magnitudes

SMILES: CNC(=O)c1ccc(C(=O)NCCCN(CCCCN(CCCNC(=O)c2ccc(C(=O)NC)c(O)c2O)C(=O)c2ccc(C(=O)NC)c(O)c2O)C(=O)c2ccc(C(=O)NC)c(O)c2O)c(O)c1O [3,4,3-LiMeTAM]
- pM value (negative logarithm of the free metal concentration) [4, 6]: 39.2
- log β110 (cumulative stability constant) with Th(IV) [4]: 56.1

SMILES: O=C(O)CN(CCO)CCN(CC(=O)O)CC(=O)O [HEDTA]
- Log K1 with thorium(IV) [1]: 18.5

SMILES: O=C(O)CN(CCN(CCN(CC(=O)O)CC(=O)O)CC(=O)O)CCN(CC(=O)O)CC(=O)O [TTHA]
- Log K1 with thorium(IV) [1]: 31.9
